Here are results for 2 molecules from US12059398B2, “Compositions of 1,3-butanediol and beta-hydroxybutyric acid to provide optimal therapeutic ketosis” (Health Via Modern Nutrition Inc., priority 2022, dated 2024).

Series [1] relates to potassium channels and nitric oxide synthase. The settings on record: cited from earlier work.
Series [2] is described as follows: Blood D-BHB pharmacokinetics comparison of ketogenic nutritional compositions after ingestion. It counts as in vivo. The note with it: for Blood D-BHB: dose 0.5 g (total BDO or BHB)/bodyweight kg, ingestion. Here is the method: FIG. 1 is a graph showing the blood D-BHB pharmacokinetics for eight ketogenic compositions, reporting blood D-BHB mM over a time period of six hours following ingestion of the ketogenic compositions.
The blood D-BHB pharmacokinetics produced by different ketogenic nutritional compositions were evaluated and compared. The nutritional compositions include: 100% R-BDO; 90 wt. % R-BDO+10 wt. % D-BHB (acid/salt); 85 wt. % R-BDO+15 wt. % D-BHB (acid/salt); 80 wt. % R-BDO+20 wt. % D-BHB (acid/salt); 75 wt. % R-BDO+25 wt. % D-BHB (acid/salt); 70 wt. % BDO+30 wt. % D-BHB; 60 wt. % BDO+40 wt. % D-BHB; and 50% BDO+50% D-BHB via R-1,3 BDO−D-BHB monoester. The compositions were administered at a dose of 0.5 g (total BDO or BHB excluding mineral or base pairs)/bodyweight kg.
The nutritional compositions include: 100% R-BDO; 90 wt. % R-BDO+10 wt. % D-BHB (acid/salt); 85 wt. % R-BDO+15 wt. % D-BHB (acid/salt); 80 wt. % R-BDO+20 wt. % D-BHB (acid/salt); 75 wt. % R-BDO+25 wt. % D-BHB (acid/salt); 70 wt. % BDO+30 wt. % D-BHB; 60 wt. % BDO+40 wt. % D-BHB; and 50% BDO+50% D-BHB via R-1,3 BDO−D-BHB monoester.
By integrating over time rather than looking at individual concentration measurements, a more accurate estimate of the overall exposure to the drug is obtained.

The mark [3] stands for this setting: dose 0.5 g/bodyweight kg, six hours following ingestion.

With `C[C@@H](O)CCO` [100% R-1,3-BDO (natural), R-1,3-butanediol], the “Effect on age-associated endothelial-dependent and -independent dysfunction” value in series [1] (not associated with increased blood BHB concentration) is “sufficient to reverse age-associated endothelial-dependent and -independent dysfunction”. Further, the Direct vasodilator mechanism result in series [1] (through activation of potassium channels and nitric oxide synthase) is on record as “predominantly an endothelium-dependent vasodilator”.
With R-1,3 BDO−D-BHB monoester, the “Blood D-BHB” value is given as 0.3 mM in series [2] (0 minutes); 4.3 mM in series [2] (60 minutes); 1.9 mM in series [2] (120 minutes); 1.3 mM in series [2] (180 minutes); 0.5 mM in series [2] (240 minutes); 0.3 mM in series [2] (300 minutes). For the same molecule, the “Blood D-BHB” value in series [2] (360 minutes) is given as 0.2 mM. In series [2] (setting [3]), the “Duration of Blood D-BHB Concentrations between 1 mM and 2.5 mM” value is 158 min. The “Total AUC mM × minutes in optimal therapeutic ketosis range of 1-2.5 mM” value in series [2] (setting [3]) was 98.3 mM·min.
